Measured values from patent US6949553B2, “Aliphatic compounds, their synthesis method, and utilization of the same” (Maruha Corporation, priority 2001, dated 2005).
Values joined by “and” are separate entries in the source; they are usually repeats but may differ in a detail not shown here. Equal values may be shown once.

How the values were obtained:
human platelets = assay: Human in vitro platelet aggregation; type: cell-based; details: inducer Serotonin + ADP, (0.25˜1) μM + (0.05˜0.25) μM, read-out: 50% inhibition point, IC50, against human in vitro platelet aggregation
platelets [1] = assay: In vitro platelet aggregation by various inducers, guinea pig platelets; type: cell-based; details: Cavia porcellus
Text: (§1) Next, the suppression of platelet aggregation by the compounds of the present invention was studied in the same manner as described above with the use of not only collagen, but also arachidonic acid, ADP, thrombin, serotonin, epinephrine and U46619 (pseudo-thromboxane A2 substance) as inducers.
(§2) As platelets, platelets prepared from rats and guinea pigs as well as rabbits were also used.
(§3) Collagen and ADP were purchased from MCM, and used in accordance with the method of preparation described in the manuals attached to the purchased products. Serotonin, epinephrine and thrombin were purchased from Sigma, and used as solutions in physiological saline for injection (Otsuka Pharmaceutical Factory). Arachidonic acid was purchased from Cayman, and dispersed in physiological saline for injection (Otsuka Pharmaceutical Factory) with the use of an immersion type ultrasonic oscillator (US150, NIPPON SEIKI, tip end diameter ca. 3.5 mm). U46619 (pseudo-thromboxane substance) was purchased from FUNAKOSHI, and dissolved in physiological saline for injection (Otsuka Pharmaceutical Factory) when used.
(§4) Collagen (0.1 to 1 μg/ml), arachidonic acid (1 mM), ADP (1 μM), thrombin (1 U/ml), serotonin (100 μM), epinephrine (100 to 200 μM), and U46619 (3 μM) were used.
(§5) Indomethacin was used as a positive control for measuring the suppression of platelet aggregation induced by collagen.

platelets [2] = assay: Ex vivo platelet aggregation after oral administration; type: in vivo, rat; details: 10, 1 or 0.1 mg/kg oral single dose, rats, blood 2 hours after administration, collagen 2 to 4 μg/ml
Experimental: Compound 2 in a dose of 10, 1 or 0.1 mg/kg was orally administered, as a single dose, to rats with the use of a probe needle. A solvent (physiological saline) was administered as a control.
The blood was withdrawn 2 hours after administration, and platelets were prepared from the blood. Platelet aggregation was induced by 2 to 4 μg/ml of collagen using the platelets. The preparation of platelets and the measurement of the aggregation rate were performed in the same manner as in Test Example 1.

platelets [3] = assay: Ex vivo platelet aggregation after intravenous administration; type: in vivo, rat
Experimental: The blood was withdrawn at three points in time, 10 minutes, 30 minutes and 1 hour after administration. Platelets were prepared from the blood samples taken, and they were used to study the aggregation rates when platelet aggregation was induced by 0.3 to 6 μg/ml of collagen. In a control group, the aggregation rates after administration of a solvent (physiological saline) were measured.
It was studied whether the compound of the present invention would suppress ex vivo platelet aggregation dose-dependently.
The blood was withdrawn 60 minutes after administration, and platelets were prepared from the blood. Platelet aggregation was induced by 4 to 7 μg/ml of collagen using the platelets.
The blood was withdrawn 1 hour after intravenous administration, and platelets were prepared from the blood. Platelet aggregation was induced by 1 to 6 μg/ml of collagen using the platelets.

[4] = test system: rat middle cerebral artery obstruction; assay: Photosensitization-induced rat middle cerebral artery obstruction model; type: in vivo; details: 1 mg/kg intravenous after laser irradiation, evaluated 24 hours after
Experimental: A photosensitization-induced rat middle cerebral artery obstruction model, widely used as a cerebral infarction acute phase/chronic phase model, was used to investigate the effect of the compounds of the present invention on an in vivo circulatory disorder pathophysiological model.
After rats were intravenously injected with a rose bengal dye (20 mg/kg), the middle cerebral artery was irradiated with green laser light (wavelength 540 nm) for 10 minutes to induce arterial infarction due to active oxygen species. After completion of irradiation with laser light, Compound 2 was intravenously administered.
A solvent (physiological saline) was intravenously administered as a control.
The progress of cerebral infarction was observed 24 hours after laser light irradiation. A transverse section (1 mm in thickness) of the brain exenterated was prepared, and soaked in triphenyltetrazolium to stain living tissue red. An infarct was white, and was clearly distinguished from the living tissue. Thus, the area of the infarct was measured, and the infarct rate (the proportion of the area of the infarct to the transverse section of the brain) was calculated for use in evaluation.

[5] = test system: vascular smooth muscle cells; assay: Synthetic type vascular smooth muscle cell proliferation (PDGF, BrdU assay); type: cell-based, rat; details: 0.3 to 3 μM with PDGF 50 ng/ml, 24 hours
Experimental: The effect of the study substance on vascular smooth muscle cell proliferation was studied.
Thus, the effect of Compound 2 on the cell proliferation of vascular smooth muscle cells was measured in the following manner:
The rat carotid arterial tunica intima was rubbed by ballooning, and vascular smooth muscle cells were prepared by explant culture. Two weeks later, these cells were cultured in a DMEM culture medium (Gibco) containing 10% fetal bovine serum. The cultures were subcultured several times for stabilization, and then planted at a cell density of 5×10^3 cells/cm^2 for use in experiments. Compound 2 in combination with 50 ng/ml of the growth factor PDGF (Sigma) was added to the above planted cells and, 24 hours later, the cell density was measured by BrdU assay (Science '82, 218, p. 474, Cytometry '85, 6, p. 584). The cell density in the absence of the drug was measured as a control.
Relative smooth muscle cell count (%)=[cell count in the experimental group]/[cell count in the control]×100.

platelets [6] = assay: In vitro platelet aggregation by various inducers, rabbit platelets; type: cell-based; details: for IC50: Oryctolagus cuniculus, Platelet, rabbit platelets, read-out: 50% inhibition point, IC50, for in vitro platelet aggregation
Text: as §1, §2, §3, §4, §5

platelets [7] = assay: In vitro platelet aggregation by various inducers, rat platelets; type: cell-based; details: Rattus norvegicus
Text: as §1, §2, §3, §4, §5

CC/C=C\C/C=C\C/C=C\C/C=C\C/C=C\C/C=C\CCC(=O)NCCC1CCCN1C (racemic) [Compound 2, (4Z,7Z,10Z,13Z,16Z,19Z)-N-[2-(1-methylpyrrolidin-2-yl)ethyl]docosahexaenoamide] showed an IC50 (human platelets) of 3 µM, an IC50 (platelets [1]; read-out: 50% aggregation inhibition point, collagen-induced aggregation, guinea pig platelets) of about 9 µM and an IC50 (platelets [1]; read-out: 50% inhibition point, IC50, for in vitro platelet aggregation, inducer ADP (1 μM), guinea pig platelets) of 65 ± 19 µM. For the same compound, the IC50 (platelets [1]; read-out: 50% inhibition point, IC50, for in vitro platelet aggregation, inducer collagen (0.1 to 1 μg/ml), guinea pig platelets) was 9 ± 6 µM, the IC50 (platelets [1]; read-out: 50% inhibition point, IC50, for in vitro platelet aggregation, inducer thrombin (1 U/ml), guinea pig platelets) was over 100 µM and the “ex vivo platelet aggregation after oral administration (in words)” value (platelets [2]) was “potently suppressed”. For the same compound, the “ex vivo IC50 blood concentration as fraction of in vitro IC50” value (platelets [3]; 26 nM versus 2.1±0.8 μM in vitro) was “about 1/80”, the “ex vivo platelet aggregation (in words)” value (platelets [3]; 0.0001 mg/kg rat caudal vein, 60 minutes, collagen 4 μg/ml) was “suppressed compared with the solvent-treated group, although the suppressive action was weak” and the “ex vivo platelet aggregation, onset of efficacy (in words)” value (platelets [3]; 10 mg/kg caudal vein, male SD rats, blood 10 minutes, 30 minutes and 1 hour after administration, collagen 0.3 to 6 μg/ml) was “platelet aggregation was suppressed in comparison with the solvent group”. For the same compound, the “ex vivo platelet aggregation (in words)” value (platelets [3]; 1, 0.1, 0.01 or 0.001 mg/kg rat caudal vein, blood 60 minutes after administration, collagen 4 to 7 μg/ml) was “platelet aggregation was suppressed in comparison with the solvent-treated group”, the “ex vivo platelet aggregation, dose-dependency (in words)” value (platelets [3]; FIG. 3, 0.0001 to 1 mg/kg rat caudal vein, 60 minutes) was “suppressing platelet aggregation ex vivo dose-dependently” and the estimated blood concentration at the ex vivo IC50 dose (platelets [3]; Platelet, iv, 630 ng/kg, rat blood estimated at about 60 ml/kg, read-out: presumed blood concentration at the ex vivo IC50 dose) was 0.026 µM. For the same compound, the “IC50 for suppression of ex vivo platelet aggregation relative to conventional GPIIb/IIIa receptor antagonists” value (platelets [3]; rat, intravenous) was “about 1,000 times”, the “50% suppression point, IC50, ex vivo platelet aggregation” value (platelets [3]; rat, intravenous, 60 minutes after administration, collagen 4 μg/ml) was 630 ± 36 ng/kg and 630 ng/kg and the “cerebral infarction, infarct rate (in words)” value [4] was “ameliorate cerebral infarction”. The “vascular smooth muscle cell proliferation (in words)” value [5] was “suppress vascular smooth muscle cell proliferation concentration-dependently”, the IC50 (platelets [6]; inducer ADP (1 μM)) was over 100 µM and the IC50 (platelets [6]; inducer U46619 (3 μM)) was 50 ± 10 µM. The IC50 (platelets [6]; inducer arachidonic acid (1 mM)) was over 100 µM, the IC50 (platelets [6]; inducer collagen (0.1 to 1 μg/ml)) was 2.1 ± 0.8 µM and the “inhibition of platelet aggregation induced by arachidonic acid, ADP and thrombin (in words)” value (platelets [6]; platelets from the rabbit, the rat or the guinea pig) was “either did not inhibit platelet aggregation, or even when it inhibited platelet aggregation, its degree of inhibition was very low”. For the same compound, the IC50 (platelets [7]; read-out: 50% aggregation inhibition point, collagen-induced aggregation, rat platelets) was about 11 µM, the IC50 (platelets [7]; read-out: 50% inhibition point, IC50, for in vitro platelet aggregation, inducer ADP (1 μM), rat platelets) was over 100 µM and the IC50 (platelets [7]; read-out: 50% inhibition point, IC50, for in vitro platelet aggregation, inducer collagen (0.1 to 1 μg/ml), rat platelets) was 11 ± 7 µM.
